Measured values as given in article PMC7417534, “Cytochrome P450 inhibition potential and initial genotoxic evaluation of 14-O-[(4,6-diaminopyrimidine-2-yl)thioacetyl] mutilin” (Scientific Reports, 2020).

Experiments:
[1] = MTT cytotoxicity assay on Hep G2 cells; format: cell-based, human; settings: human, DPTM 4.98 mM, read-out: cell viability
Protocol: (§1) Intrinsic toxicity of DPTM was conducted as described in the literature[36]–[38] with some modifications. […] After proliferating to logarithmic growth phase at 37 °C under 5% CO2, cells were seeded to a new 96-well plate with a density of […] and cultured for 24 h at the same condition. The media were replaced with 100 μL of serial dilutions of DPTM (10 mg DPTM was dissolved in 1 mL 1% DMSO to a solution and then diluted two-fold with distilled water to provide 19.91, 9.96, 4.98, 2.49, 1.25, 0.62, 0.31, 0.16 and 0.08 mM serial dilutions). The blank group only used 1% DMSO to replace the media. The obtained mixture was incubated for 24 h. After that, all media in cells were removed and 20 μL of MTT reagent was added for an additional 4 h. Then, supernatant fraction was removed and 100 μL dimethyl sulfoxide (DMSO) was added, followed by incubation at 37 °C for 15 min. The absorbance of each well was determined by a spectrophotometer at dual wavelengths of 570 and 279 nm for the background. The viability percentage was calculated by the following formula: cell viability % = (ODsample − ODblank/ODcontrol − ODblank) × 100. A sigmoid-shaped curve was fitted to the data, and the IC50 was calculated by fitting the Hill equation to the data with nonlinear regression (least-squares best fit modelling) using GraphPad Prism 4 (GraphPad Software Inc., San Diego, USA). […]

Hep G2 cells = assay: MTT cytotoxicity assay on Hep G2 cells; format: cell-based, human; settings: Homo sapiens, HepG2, 24 h incubation, read-out: IC50 value, cell viability (MTT)
Protocol: as §1

CYP1A2 = target: T1, CYP1A2 (Homo sapiens, UniProt P05177); assay: Cocktail CYP inhibition in human liver microsomes, CYP1A2 (phenacetin); format: in vitro ADME; settings: cocktail method, read-out: IC50 values, CYP1A2 in HLMs
T1 construct: containing 100 μL RLMs or HLMs; tissue Research Institute for Liver Diseases (Shanghai) Co., Ltd; host or cells: pooled human liver microsomes
Protocol: We used the cocktail method to study the inhibition activities of DPTM against CYP enzymes in RLMs and HLMs with slight modification. DPTM (250 μmol) was dissolved in 1.25 mL methanol to a solution and then diluted with methanol and water to 2, 10, 20, 100, 200, 400, 1,000 and 2000 μM, respectively. The obtained serial dilutions (10 μL) were added to the incubation mixtures (200 μL total volume), containing 100 μL RLMs or HLMs (final concentration was 5 μg/μL, respectively), 10 μL glucose-6-phosphate (final concentration was 1 mM), 10 μL glucose-6-phosphate dehydrogenase (final concentration was 0.1 U/L), 20 μL potassium phosphate buffer (final concentration was 0.01 M) and 20 μL MgCl2 (final concentration was 2 mM), to give the final concentrations were 0.1, 0.5, 1, 5 10, 20, 50, and 100 μM, respectively. For the groups that in the absence of DPTM, 10 μL methanol (1%) replaced the DPTM and was added to the incubation mixtures. […] The final concentration of methanol in all the incubation mixtures, including the blank group, was […]. […] The determined metabolic substrates were used for calculating the relative enzyme activity (Erel) by the following formula: Erel (%) = Ci(n)/Ci(0) × 100%, in which Ci(n) was the determined metabolic substrates in the presence of varying concentrations of DPTM and Ci(0) was the determined metabolic substrates in the absence of DPTM. […]

CYP2C9 mRNA = CYP2C9 mRNA expression in Hep G2 cells (real-time PCR); format: cell-based, human; settings: 2 and 4 h, 4.98, 0.16 and 0.08 mM
Protocol: (§2) The logarithmic growth phase Hep G2 cells were seeded into 12-well plastic plates at a density of […]. After incubation at 37 °C under 5% CO2 for 24 h, the media were then replaced with 1 mL of serial dilutions of the DPTM (4.98, 0.16 and 0.08 mM) in fresh media. When cells were incubated for 2, 4 and 12 h at 37 °C under 5% CO2, the RNA was isolated using the Trizol reagent according to the manufacturer’s protocol. Total RNA (5 μL) was transcribed into cDNA by using the PrimeScript RT reagent Kit (Perfect Real Time). The obtained cDNA (5 μL) was added for 45 cycles of PCR amplification to detect the mRNA expression (the primers and sequences used herein were given in Table 3) using the ABI Villa TM7Dx real-time PCR system (Gaithersburg, USA). Glyceraldehyde-3-phosphate dehydrogenase (GAPDH) was used as reference gene. All reactions were performed in a final volume of 20 μL (10 μL of 2 × SYBR Green Real-time PCR Master Mix, 2 μL of cDNA and 2 μL of the primers and 6 μL DEPC water) and executed in triplicate.

CYP2D6 mRNA = CYP2D6 mRNA expression in Hep G2 cells (real-time PCR); format: cell-based, human; settings: 12 h
Protocol: as §2

S. typhimurium TA98 = assay: Ames test, strain TA98; format: cell-based, Salmonella typhimurium; settings: − S9
Excerpt: S. typhimurium strains TA97, TA98, TA100, TA102 and TA1535 were stored and maintained as provided in the standard protocol. Each of the strains was checked for their genetic integrity prior to the experiment, and tested for biotin dependence, histidine dependence, biotin and histidine dependence, rfa marker (crystal violet) and presence of the plasmid pKM101 (ampicillin resistance) or pAQ1 (tetracycline resistance). Different strains were used to identify different types of mutations.
The test was carried out at five different concentrations of DPTM. […] Then 1 mL solution was diluted with distilled water by two fold. […] The negative control used in this experiment was 1 mL DMSO which was directly incorporated into 9 mL melted top agar.
The Ames test of DPTM was conducted as described in the literatures[42],[43] with some modifications. Briefly, 1 mL of strain was inoculated into 5 mL of nutrient broth, followed by incubating overnight at 37 °C. The mixture comprised respective strains, drug, negative and positive controls with the S9 for testing in the presence of metabolic activation system. For testing without S9, 1 × phosphate buffer saline (PBS, pH 7.4) replaced the S9 mix. The obtained mixtures were added into the tube, mixed well and incubated at 37 °C for 20 min. Then, the top agar was melted and 2 mL of this melted top agar was added to each tube and gently mixed. […] The results were expressed as the number of revertant colonies per plate. The experiments were performed in triplicate.

T1 sequence (P05177 whole entry): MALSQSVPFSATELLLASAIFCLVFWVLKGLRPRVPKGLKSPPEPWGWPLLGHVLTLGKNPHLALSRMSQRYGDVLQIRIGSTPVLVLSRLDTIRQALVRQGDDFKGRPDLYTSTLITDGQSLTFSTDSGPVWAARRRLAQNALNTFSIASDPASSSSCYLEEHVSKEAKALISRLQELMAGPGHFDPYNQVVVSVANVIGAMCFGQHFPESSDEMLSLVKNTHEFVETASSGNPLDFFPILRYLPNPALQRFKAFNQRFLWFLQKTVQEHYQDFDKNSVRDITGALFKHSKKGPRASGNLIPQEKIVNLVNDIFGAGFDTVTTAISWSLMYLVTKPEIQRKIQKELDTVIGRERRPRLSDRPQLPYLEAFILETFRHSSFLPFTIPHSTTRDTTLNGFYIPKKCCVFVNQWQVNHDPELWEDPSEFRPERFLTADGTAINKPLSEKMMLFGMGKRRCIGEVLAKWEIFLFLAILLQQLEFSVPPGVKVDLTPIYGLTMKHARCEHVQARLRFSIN

## C=CC1(C)CC(OC(=O)CSc2nc(N)cc(N)n2)C2(C)C(C)CCC3(CCC(=O)C32)C(C)C1O (stereo not shown) [DPTM, 14-O-[(4,6-Diaminopyrimidine-2-yl)thioacetyl] mutilin]
[1]
  viability at 24 h, 4.98 mM: 79%
Hep G2 cells
  IC50: 10 ± 2 mM
CYP1A2
  IC50: > 0.1 mM
CYP2C9 mRNA
  CYP2C9 mRNA expression versus control: significantly increase
CYP2D6 mRNA
  CYP2D6 mRNA expression versus control: significantly lowered
S. typhimurium TA98; dose 0.25 μmol/plate
  revertant colonies per plate, TA98: 33 ± 6 CFU
S. typhimurium TA98; dose 0.50 μmol/plate
  revertant colonies per plate, TA98: 30 ± 10 CFU
S. typhimurium TA98; dose 1.00 μmol/plate
  revertant colonies per plate, TA98: 27 ± 8 CFU
S. typhimurium TA98; dose 1.99 μmol/plate
  revertant colonies per plate, TA98: 32 ± 8 CFU
S. typhimurium TA98; dose 3.98 μmol/plate
  revertant colonies per plate, TA98: 28 ± 11 CFU
